According to PMC7059125 (Bioorganic & medicinal chemistry letters, 2018):
Each block holds one molecule with its values, some of them ahead of it.

Molecular target: mushroom tyrosinase (Agaricus bisporus, UniProt C7FF04)
Experiment: Tyrosinase inhibitory assay
Type: biochemical
[1] = percent inhibition at 500 μM, versus carvacrol (1)

Sequence of mushroom tyrosinase (C7FF04 1-392): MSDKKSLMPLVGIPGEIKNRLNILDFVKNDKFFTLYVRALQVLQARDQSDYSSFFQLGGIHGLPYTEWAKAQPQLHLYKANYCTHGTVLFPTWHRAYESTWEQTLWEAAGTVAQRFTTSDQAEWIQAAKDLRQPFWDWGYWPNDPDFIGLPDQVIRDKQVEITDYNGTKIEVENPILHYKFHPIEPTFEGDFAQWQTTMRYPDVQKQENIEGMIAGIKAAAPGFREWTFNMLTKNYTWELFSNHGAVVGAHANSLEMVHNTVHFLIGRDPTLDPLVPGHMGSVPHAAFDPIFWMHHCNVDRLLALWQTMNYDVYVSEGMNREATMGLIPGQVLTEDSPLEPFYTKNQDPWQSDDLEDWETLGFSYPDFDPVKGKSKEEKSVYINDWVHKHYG

fold increase in activity relative to carvacrol [1]: 1.6 fold
Structure (SMILES): CCOc1cc(C(C)C)ccc1C [Compound 3, ethyl carvacrol]

fold decrease in activity relative to carvacrol [1]: 2.1 fold
Structure (SMILES): CCOc1cc(C(C)C)c(C(=O)CCC(=O)O)cc1C [Compound 5]

inhibition at 500 µM: 100 ± 3.9%
Structure (SMILES): CCCCOC(=O)CCC(=O)c1cc(C(C)C)c(OCC)cc1C [Compound 18]
